Legend:
[1] = Solubility determination; conditions: for Sol6: pH 6; for Sol7: pH 7
Procedure, shortened: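 Shake-flask style: 10 mg/ml peptide (TFA salt), 0.1 M sodium diphosphate pH 6.4/7.0, 600 rpm, 2 h, RT; filter; dilute 1 mg/ml in 50% MeCN; RP-UPLC, 0–100% B over 2 min, 50 °C. Solubility = sample/control area ratio. Final pH recorded.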

[2] = target: T1, Human Neuropeptide Y2 Receptor (Homo sapiens, UniProt P49146); experiment: Radioligand binding competition assay (RLB); conditions: Table 3, 125I-PYY(1-36) competition; read-out: Ki
T1 construct: purchased CHEMICON HTS066M
T1 sequence (P49146 1-381): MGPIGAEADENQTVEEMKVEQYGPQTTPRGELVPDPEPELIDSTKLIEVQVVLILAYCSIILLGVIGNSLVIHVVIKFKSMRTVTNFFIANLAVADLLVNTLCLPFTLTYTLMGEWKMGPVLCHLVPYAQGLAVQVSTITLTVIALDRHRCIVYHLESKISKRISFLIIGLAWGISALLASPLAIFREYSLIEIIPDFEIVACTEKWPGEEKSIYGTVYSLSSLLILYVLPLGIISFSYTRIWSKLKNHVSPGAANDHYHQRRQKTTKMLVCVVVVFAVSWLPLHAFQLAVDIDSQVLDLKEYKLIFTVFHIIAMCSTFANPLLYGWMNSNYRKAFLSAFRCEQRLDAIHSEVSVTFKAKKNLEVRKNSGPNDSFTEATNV
Procedure, shortened: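 Receptor membranes, 0.5 μg/well; buffer 50 mM HEPES/5 mM MgCl2/1 mM CaCl2/0.2% ovalbumin, pH 7.4; 2 h RT, shaking. GF/C filtration, cold HEPES/500 mM NaCl wash, scintillation count. IC50 by nonlinear regression.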

Row | SMILES | Sol6 [1] | Sol7 [1] | Ki [2]
1 | CC(C)CC(=O)N[C@@H](C)C(=O)N1CCC[C@H]1C(=O)N[C@@H](CCC(=O)O)C(=O)N[C@@H](CCCCNC(=O)CCCCCNC(=O)CC[C@H](NC(=O)CCCCCCCCCCCCCCCCC(=O)O)C(=O)O)C(=O)N1CCC[C@H]1C(=O)N[C@@H](CCC(=O)O)C(=O)N[C@@H](CCC(=O)O)C(=O)N[C@@H](CC(=O)O)C(=O)N[C@@H](C)C(=O)N[C@H](C(=O)N1CCC[C@H]1C(=O)N[C@@H](CCC(=O)O)C(=O)N[C@@H](CCC(=O)O)C(=O)N[C@@H](CC(C)C)C(=O)N[C@@H](CCC(N)=O)C(=O)N[C@@H](C)C(=O)N[C@@H](Cc1ccc(O)cc1)C(=O)N[C@@H](Cc1ccc(O)cc1)C(=O)N[C@H](C(=O)N[C@@H](CO)C(=O)N[C@@H](CC(C)C)C(=O)N[C@@H](CCCNC(=N)N)C(=O)N[C@@H](Cc1c[nH]cn1)C(=O)N[C@@H](Cc1ccc(O)cc1)C(=O)N[C@@H](Cc1ccc(O)cc1)C(=O)N[C@@H](CC(N)=O)C(=O)N[C@@H](Cc1c[nH]c2ccccc12)C(=O)N[C@@H](CC(C)C)C(=O)N[C@H](C(=O)N[C@@H](CCCNC(=N)N)C(=O)N[C@@H](CCC(N)=O)C(=O)N[C@@H](CCCNC(=N)N)C(=O)N[C@@H](Cc1ccc(O)cc1)C(N)=O)[C@@H](C)O)C(C)C)[C@@H](C)O [Compound 95, N{alpha-4}-(3-methylbutanoyl)-N{epsilon-7}-(6-[(4S)-4-carboxy-4-(17-carboxyheptadecanamido)butanamido]hexanoyl)-[4A,7K,9E,13T,18Q,19A,22V,28Y,30W,31L]-hPYY(4-36)] | 8.9 mg/mL | 7.9 mg/mL | 2.92 nM
2 | CC(C)CC(=O)N[C@@H](C)C(=O)N1CCC[C@H]1C(=O)N[C@@H](CCC(=O)O)C(=O)N[C@@H](CCCCNC(=O)CCCCCNC(=O)CC[C@H](NC(=O)CCCCCCCCCCCCCCCCC(=O)O)C(=O)O)C(=O)N1CCC[C@H]1C(=O)N[C@@H](CCC(=O)O)C(=O)N[C@@H](CCC(=O)O)C(=O)N[C@@H](CO)C(=O)N[C@@H](C)C(=O)N[C@H](C(=O)N1CCC[C@H]1C(=O)N[C@@H](CCC(=O)O)C(=O)N[C@@H](CCC(=O)O)C(=O)N[C@@H](CC(C)C)C(=O)N[C@@H](CCC(N)=O)C(=O)N[C@@H](CCCNC(=N)N)C(=O)N[C@@H](Cc1ccc(O)cc1)C(=O)N[C@@H](Cc1ccc(O)cc1)C(=O)N[C@H](C(=O)N[C@@H](CO)C(=O)N[C@@H](CC(C)C)C(=O)N[C@@H](CCCNC(=N)N)C(=O)N[C@@H](Cc1c[nH]cn1)C(=O)N[C@@H](Cc1ccc(O)cc1)C(=O)N[C@@H](Cc1ccc(O)cc1)C(=O)N[C@@H](CC(N)=O)C(=O)N[C@@H](Cc1c[nH]c2ccccc12)C(=O)N[C@@H](CC(C)C)C(=O)N[C@H](C(=O)N[C@@H](CCCNC(=N)N)C(=O)N[C@@H](CCC(N)=O)C(=O)N[C@@H](CCCNC(=N)N)C(=O)N[C@@H](Cc1ccc(O)cc1)C(N)=O)[C@@H](C)O)C(C)C)[C@@H](C)O [Compound 96, N{alpha-4}-(3-methylbutanoyl)-N{epsilon-7}-(6-[(4S)-4-carboxy-4-(17-carboxyheptadecanamido)butanamido]hexanoyl)-[4A,7K,9E,11S,13T,18Q,22V,28Y,30W,31L]-hPYY(4-36)] | 8.8 mg/mL | 8.7 mg/mL | 3.06 nM

Source: patent US12391737B2, “Soluble NPY2 receptor agonists” (Boehringer Ingelheim International GmbH, priority 2020, dated 2025)
